Assay results from US20220031800A1, “PEPTIDES FOR TREATING NON-EXUDATIVE MACULAR DEGENERATION AND OTHER DISORDERS OF THE EYE” (Allegro Pharmaceuticals, LLC, priority 2019, published 2022).
Square brackets hold non-standard residues; d marks the D form. Peptide text beside a SMILES is read from it. Cya = N[C@@H](CS(=O)(=O)O)C(=O)O

System: study eye of subjects with intermediate non-exudative AMD
Experiment: SD-OCT Analysis 2 (thickness, volume, map coverage of retinal layers)
Type: in vivo, human
Conditions: change from baseline at Week 32
Experimental: Numerous study assessments were conducted at various time points throughout the study. Included among these study assessments were; refractive eye examinations, determinations of BCVA AND low-luminance BCVA, Lanthony D-15 color vision test, measurement of intraocular pressure (IOP), Indirect ophthalmoscopy/dilated fundus examinations and spectral-domain optical coherence tomography (SD-OCT). Also, blood and saliva samples were obtained from each subject for genetic analysis. The above-listed study assessments were performed at the time points indicated in Table 1, below: The OCT scans were analyzed by two (2) unrelated experts. In Analysis #2, the OCT images of study eyes were analyzed to determine mean thickness and mean volume of numerous retinal subfields and layer segments at baseline and at Week 12 for sham eyes and at baseline and at Week 32 for risuteganib eyes, to document any significant differences between groups of eyes based on baseline measurements or changes from baseline in those measurements. In addition to the quantitative analysis of OCT images, OCT Analysis #2 included qualitative assessment of the OCT images to identify GA, pseudodrusen, and disruption of the ELM and EZ layers. FIGS. 9A, 9B and 9C illustrate the level of varying pathology within the ELM based on quantitative mapping that were also assessed, with FIG. 9A (left) showing no ELM disruption, FIG. 9B (center) showing segmental disruption, and FIG. 9C showing diffuse disruption.

[1] = risuteganib nonresponder eyes, n = 12

C[C@@H](O)[C@H](NC(=O)[C@H](CS(=O)(=O)O)NC(=O)CNC(=O)[C@H](CCCNC(=N)N)NC(=O)CN)C(=O)N1CCC[C@H]1C(=O)O [risuteganib, Glycyl-L-arginylglycyl-3-sulfo-L-alanyl-L-threonyl-L-proline] (H-GRG[Cya]TP-OH)
Change in mean thickness, ONL-RPE foveal center (Risuteganib Responder eyes): 0.650 μm
Change in mean thickness, ONL-RPE mid subfield (Risuteganib Responder eyes): −6.561 μm
Change in mean thickness, RPE-BM central subfield (Risuteganib Responder eyes): −8.238 μm
Change in mean thickness, RPE-BM foveal center (Risuteganib Responder eyes): −12.512 μm
Change in mean thickness, RPE-BM mid subfield (Risuteganib Responder eyes): −5.287 μm
Change in mean thickness, Total retinal central subfield (Risuteganib Responder eyes): −0.691 μm
Change in mean thickness, Total retinal foveal center (Risuteganib Responder eyes): 0.804 μm
Change in mean thickness, Total retinal mid subfield (Risuteganib Responder eyes): −1.049 μm
Change in volume, ELM-EZ central subfield (Risuteganib Responder eyes): −0.002 mm^3
Change in volume, ELM-EZ mid subfield (Risuteganib Responder eyes): −0.003 mm^3
Change in volume, ELM-RPE (Risuteganib Responder eyes): 0.086 mm^3
Change in volume, ELM-RPE central subfield (Risuteganib Responder eyes): −0.002 mm^3
Change in volume, ELM-RPE mid subfield (Risuteganib Responder eyes): −0.007 mm^3
Change in volume, EZ-RPE (Risuteganib Responder eyes): −0.059 mm^3
Change in volume, EZ-RPE central subfield (Risuteganib Responder eyes): −0.001 mm^3
Change in volume, EZ-RPE mid subfield (Risuteganib Responder eyes): −0.004 mm^3
Change in volume, ONL-EZ central subfield (Risuteganib Responder eyes): −0.004 mm^3
Change in volume, ONL-EZ mid subfield (Risuteganib Responder eyes): −0.017 mm^3
Change in volume, ONL-RPE (Risuteganib Responder eyes): 0.009 mm^3
Change in volume, ONL-RPE central subfield (Risuteganib Responder eyes): −0.005 mm^3
Change in volume, ONL-RPE mid subfield (Risuteganib Responder eyes): −0.021 mm^3
Change in volume, RPE-BM (Risuteganib Responder eyes): −0.049 mm^3
Change in volume, RPE-BM central subfield (Risuteganib Responder eyes): −0.007 mm^3
Change in volume, RPE-BM mid subfield (Risuteganib Responder eyes): −0.017 mm^3
Change in volume, Total retinal (Risuteganib Responder eyes): −0.188 mm^3
Change in volume, Total retinal central subfield (Risuteganib Responder eyes): 0.000 mm^3
Change in volume, Total retinal mid subfield (Risuteganib Responder eyes): −0.004 mm^3
Map coverage, 0 μm EZ (Risuteganib Responder eyes): 3.679%
Map coverage, 0 μm RPE-BM (Risuteganib Responder eyes): 1.099%
Map coverage, 10 μm EZ (Risuteganib Responder eyes): 3.699%
Map coverage, 20 μm EZ (Risuteganib Responder eyes): 3.574%
Map coverage, 50 μm RPE-BM (Risuteganib Responder eyes): −3.49%
Map coverage, 150 μm RPE-BM (Risuteganib Responder eyes): 3.335%
Map coverage, 250 μm RPE-BM (Risuteganib Responder eyes): −0.011%
Change in mean thickness, ELM-EZ central subfield (risuteganib arm, n = 24): −1.827 μm
Change in mean thickness, ELM-EZ mid subfield (risuteganib arm, n = 24): −0.106 μm
Change in mean thickness, ELM-RPE central subfield (risuteganib arm, n = 24): −2.912 μm
Change in mean thickness, ELM-RPE foveal center (risuteganib arm, n = 24): −6.094 μm
Change in mean thickness, ELM-RPE mid subfield (risuteganib arm, n = 24): −1.593 μm
Change in mean thickness, EZ-RPE central subfield (risuteganib arm, n = 24): −1.085 μm
Change in mean thickness, EZ-RPE foveal center (risuteganib arm, n = 24): −0.407 μm
Change in mean thickness, EZ-RPE mid subfield (risuteganib arm, n = 24): −1.486 μm
Change in mean thickness, Inner retina central subfield (risuteganib arm, n = 24): 3.880 μm
Change in mean thickness, Inner retina mid subfield (risuteganib arm, n = 24): 3.893 μm
Change in mean thickness, ONL-EZ central subfield (risuteganib arm, n = 24): −6.131 μm
Change in mean thickness, ONL-EZ mid subfield (risuteganib arm, n = 24): −4.954 μm
Change in mean thickness, ONL-RPE central subfield (risuteganib arm, n = 24): −7.216 μm
Change in mean thickness, ONL-RPE foveal center (risuteganib arm, n = 24): −3.488 μm
Change in mean thickness, ONL-RPE mid subfield (risuteganib arm, n = 24): −6.441 μm
Change in mean thickness, RPE-BM central subfield (risuteganib arm, n = 24): −4.178 μm
Change in mean thickness, RPE-BM foveal center (risuteganib arm, n = 24): −8.126 μm
Change in mean thickness, RPE-BM mid subfield (risuteganib arm, n = 24): −2.086 μm
Change in mean thickness, Total retinal central subfield (risuteganib arm, n = 24): −3.336 μm
Change in mean thickness, Total retinal foveal center (risuteganib arm, n = 24): −4.154 μm
Change in mean thickness, Total retinal mid subfield (risuteganib arm, n = 24): −2.548 μm
Change in volume, ELM-EZ central subfield (risuteganib arm, n = 24): −0.001 mm^3
Change in volume, ELM-EZ mid subfield (risuteganib arm, n = 24): 0.000 mm^3
Change in volume, ELM-RPE (risuteganib arm, n = 24): 0.048 mm^3
Change in volume, ELM-RPE central subfield (risuteganib arm, n = 24): −0.002 mm^3
Change in volume, ELM-RPE mid subfield (risuteganib arm, n = 24): −0.005 mm^3
Change in volume, EZ-RPE (risuteganib arm, n = 24): −0.027 mm^3
Change in volume, EZ-RPE central subfield (risuteganib arm, n = 24): −0.001 mm^3
Change in volume, EZ-RPE mid subfield (risuteganib arm, n = 24): −0.005 mm^3
Change in volume, ONL-EZ central subfield (risuteganib arm, n = 24): −0.005 mm^3
Change in volume, ONL-EZ mid subfield (risuteganib arm, n = 24): −0.016 mm^3
Change in volume, ONL-RPE (risuteganib arm, n = 24): −0.009 mm^3
Change in volume, ONL-RPE central subfield (risuteganib arm, n = 24): −0.005 mm^3
Change in volume, ONL-RPE mid subfield (risuteganib arm, n = 24): −0.020 mm^3
Change in volume, RPE-BM (risuteganib arm, n = 24): −0.006 mm^3
Change in volume, RPE-BM central subfield (risuteganib arm, n = 24): −0.003 mm^3
Change in volume, RPE-BM mid subfield (risuteganib arm, n = 24): −0.007 mm^3
Change in volume, Total retinal (risuteganib arm, n = 24): −0.048 mm^3
Change in volume, Total retinal central subfield (risuteganib arm, n = 24): −0.002 mm^3
Change in volume, Total retinal mid subfield (risuteganib arm, n = 24): −0.008 mm^3
Map coverage, 0 μm EZ (risuteganib arm, n = 24): 2.574%
Map coverage, 0 μm RPE-BM (risuteganib arm, n = 24): 1.282%
Map coverage, 10 μm EZ (risuteganib arm, n = 24): 2.515%
Map coverage, 20 μm EZ (risuteganib arm, n = 24): 2.431%
Map coverage, 50 μm RPE-BM (risuteganib arm, n = 24): −2.644%
Map coverage, 150 μm RPE-BM (risuteganib arm, n = 24): 2.739%
Map coverage, 250 μm RPE-BM (risuteganib arm, n = 24): −0.006%
Change in mean thickness, ELM-EZ central subfield [1]: −1.332 μm
Change in mean thickness, ELM-EZ mid subfield [1]: 0.754 μm
Change in mean thickness, ELM-RPE central subfield [1]: −2.722 μm
Change in mean thickness, ELM-RPE foveal center [1]: −12.189 μm
Change in mean thickness, ELM-RPE mid subfield [1]: −1.044 μm
Change in mean thickness, EZ-RPE central subfield [1]: −1.390 μm
Change in mean thickness, EZ-RPE foveal center [1]: −1.789 μm
Change in mean thickness, EZ-RPE mid subfield [1]: −1.798 μm
Change in mean thickness, Inner retina central subfield [1]: 1.896 μm
